Source: publication PMC3395435 (Biopolymers, 2012)

Legend:
[1] = assay type: physicochemical; conditions: pH 7.5
[2] = tested on: Swiss Webster mice; conditions: mouse, in vivo
[3] = tested on: rat vas deferens; conditions: cited from earlier work
[4] = tested on: Swiss Webster mice; conditions: mouse, in vivo; cited from earlier work

ω-conotoxin GVIA
natively folded peptide retained at the steady state [1]: about 60%
duration of shaking syndrome [2]: maintained for a long time
shaking syndrome (persistent body tremor) [2]: exhibited the shaking syndrome
Biological activity (twitch responses) [3]: 10 nM
duration of shaking syndrome, previous work [4]: maintained for a long time in a dose-dependent manner
shaking syndrome, previous work [4]: induce shaking syndrome in mice
